Experimental data reported in publication PMC6009873, “Discovery of novel dual inhibitors of receptor tyrosine kinases EGFR and PDGFR-β related to anticancer drug resistance” (Journal of Enzyme Inhibition and Medicinal Chemistry, 2017).

What was measured:
EGFR = molecular target: T1, EGFR (Homo sapiens, UniProt P00533); assay: Receptor tyrosine kinase inhibition, [γ-33P]-ATP competition FlashPlate assay; type: biochemical; conditions: Ki determined from IC50, competitive binding mode, 15 µM ATP, Km ATP 1.3 µM; n.a. = not active
T1 construct: GST; made in house; host or cells: Sf9 insect cells (baculovirus)
T1 sequence (P00533 25-1210): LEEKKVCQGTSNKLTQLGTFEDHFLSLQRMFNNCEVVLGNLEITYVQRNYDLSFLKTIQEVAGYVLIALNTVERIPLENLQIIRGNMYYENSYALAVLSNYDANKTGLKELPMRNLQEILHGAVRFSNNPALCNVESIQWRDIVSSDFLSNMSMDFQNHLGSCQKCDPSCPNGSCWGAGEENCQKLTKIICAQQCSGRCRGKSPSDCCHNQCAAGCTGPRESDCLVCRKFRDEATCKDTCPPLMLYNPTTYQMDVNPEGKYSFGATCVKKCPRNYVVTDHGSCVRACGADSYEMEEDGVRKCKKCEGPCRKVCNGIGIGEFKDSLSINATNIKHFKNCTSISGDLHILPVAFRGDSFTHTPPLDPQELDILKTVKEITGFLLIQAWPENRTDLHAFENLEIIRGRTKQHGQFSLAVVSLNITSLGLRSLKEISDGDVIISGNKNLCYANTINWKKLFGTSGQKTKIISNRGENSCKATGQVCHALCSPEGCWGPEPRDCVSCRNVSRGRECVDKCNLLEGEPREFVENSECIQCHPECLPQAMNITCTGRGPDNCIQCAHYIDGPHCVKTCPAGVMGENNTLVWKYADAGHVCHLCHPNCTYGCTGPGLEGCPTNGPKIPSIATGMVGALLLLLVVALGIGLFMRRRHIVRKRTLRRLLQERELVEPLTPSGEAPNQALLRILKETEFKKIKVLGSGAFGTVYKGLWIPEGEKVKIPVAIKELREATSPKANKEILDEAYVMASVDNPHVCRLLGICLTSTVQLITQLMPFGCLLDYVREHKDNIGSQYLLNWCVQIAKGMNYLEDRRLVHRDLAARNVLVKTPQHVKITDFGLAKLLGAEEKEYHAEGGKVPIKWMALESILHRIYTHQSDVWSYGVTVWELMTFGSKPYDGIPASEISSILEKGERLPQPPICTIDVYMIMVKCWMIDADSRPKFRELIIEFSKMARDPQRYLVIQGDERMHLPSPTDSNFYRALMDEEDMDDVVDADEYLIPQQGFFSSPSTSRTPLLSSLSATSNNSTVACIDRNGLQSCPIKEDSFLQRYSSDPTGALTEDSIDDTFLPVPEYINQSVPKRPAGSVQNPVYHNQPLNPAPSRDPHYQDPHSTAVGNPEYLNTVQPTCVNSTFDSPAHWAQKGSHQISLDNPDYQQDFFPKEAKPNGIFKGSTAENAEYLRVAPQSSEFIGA
Method: (§1) The protein kinases were expressed by means of the baculovirus expression system in Sf9 insect cells as human recombinant GST fusion proteins and purified by affinity chromatography using GSH-agarose. The kinase identity was confirmed by mass spectrometry using LC-ESI-MS/MS technique.
The measuring of protein kinase activity was performed in 96-well FlashPlates^TM from Perkin Elmer in a 50 µL reaction volume. The reaction mixture consisted of 20 µL of assay buffer solution, 5 µL of ATP solution in water, 5 µL of used test compound in a 10% dmso solution and, finally, a premixture of each 10 µL of used substrate and enzyme solutions. […] The final kinase concentration has been 10 ng/50 µL for EGFR and 20 ng/50 µL for PDGFR-β. […] The reaction mixtures were incubated at 30 °C for 60 min. The reaction was stopped with 50 µL of a 2% (v/v) solution of phosphoric acid. Then the plates were aspirated and washed twice with 200 µL of water and a 0.9% solution of sodium chloride. The incorporation of ^33 P was determined with a microplate scintillation counter. Ten different inhibitor concentrations were measured in a range of 3 nM to 100 µM. The residual activity (%) and the IC50 values were finally calculated.

PDGFR-β = molecular target: T2, PDGFR-β (Homo sapiens, UniProt P09619); assay: as above; type: biochemical; conditions: for Ki / Ki values PDGFR-β: Ki determined from IC50, competitive binding mode, 15 µM ATP, Km ATP 0.989 µM, n.a. = not active
T2 construct: GST; made in house; host or cells: Sf9 insect cells (baculovirus)
T2 sequence (P09619 33-1106): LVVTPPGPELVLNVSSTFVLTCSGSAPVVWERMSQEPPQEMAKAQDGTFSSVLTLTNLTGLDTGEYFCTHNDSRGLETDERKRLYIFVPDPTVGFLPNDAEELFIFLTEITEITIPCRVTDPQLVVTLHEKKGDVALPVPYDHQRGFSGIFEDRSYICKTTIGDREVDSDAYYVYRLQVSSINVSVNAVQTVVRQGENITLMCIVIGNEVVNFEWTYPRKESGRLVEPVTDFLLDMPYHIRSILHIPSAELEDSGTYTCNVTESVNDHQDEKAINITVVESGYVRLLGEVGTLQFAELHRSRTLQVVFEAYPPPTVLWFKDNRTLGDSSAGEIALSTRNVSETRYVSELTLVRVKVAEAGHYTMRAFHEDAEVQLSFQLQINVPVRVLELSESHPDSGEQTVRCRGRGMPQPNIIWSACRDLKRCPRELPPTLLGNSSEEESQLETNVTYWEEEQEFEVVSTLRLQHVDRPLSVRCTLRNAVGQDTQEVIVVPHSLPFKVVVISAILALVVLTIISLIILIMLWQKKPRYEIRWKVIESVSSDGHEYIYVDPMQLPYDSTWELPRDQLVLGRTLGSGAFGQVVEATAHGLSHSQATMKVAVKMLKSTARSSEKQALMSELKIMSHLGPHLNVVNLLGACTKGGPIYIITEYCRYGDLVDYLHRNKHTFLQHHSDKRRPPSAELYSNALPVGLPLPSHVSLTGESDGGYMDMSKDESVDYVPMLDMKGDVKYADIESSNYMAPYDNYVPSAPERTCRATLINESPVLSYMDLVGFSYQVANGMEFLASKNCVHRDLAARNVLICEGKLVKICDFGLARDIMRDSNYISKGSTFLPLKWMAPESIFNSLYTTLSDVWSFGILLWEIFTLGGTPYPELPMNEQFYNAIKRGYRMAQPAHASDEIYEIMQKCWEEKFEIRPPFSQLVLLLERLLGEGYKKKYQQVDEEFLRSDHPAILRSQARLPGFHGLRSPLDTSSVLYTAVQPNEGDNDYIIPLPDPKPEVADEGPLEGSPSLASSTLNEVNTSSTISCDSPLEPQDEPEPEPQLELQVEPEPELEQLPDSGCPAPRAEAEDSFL
Method: as §1
The measuring of protein kinase activity was performed in 96-well FlashPlates^TM from Perkin Elmer in a 50 µL reaction volume. The reaction mixture consisted of 20 µL of assay buffer solution, 5 µL of ATP solution in water, 5 µL of used test compound in a 10% dmso solution and, finally, a premixture of each 10 µL of used substrate and enzyme solutions. The assay buffer solution contained 70 mM of HEPES-NAOH pH 7.5, each 3 mM of magnesium chloride and manganese(II) chloride, 3 µM of sodium orthovanadate, 1.2 mM of DTT, 50 µg/mL of PEG20000 and finally 15 µM of [γ-^33 P]-ATP making approximately 9 × 10^5 cpm per well. The final kinase concentration has been 10 ng/50 µL for EGFR and 20 ng/50 µL for PDGFR-β. The substrate was Poly(Glu,Tyr)4:1 for EGFR and Poly(Ala, Glu, Lys, Tyr)6:2:5.1 for PDFGR-β, both used in a concentration of 125 ng/50 µL. The reaction mixtures were incubated at 30 °C for 60 min. The reaction was stopped with 50 µL of a 2% (v/v) solution of phosphoric acid. Then the plates were aspirated and washed twice with 200 µL of water and a 0.9% solution of sodium chloride. The incorporation of ^33 P was determined with a microplate scintillation counter. Ten different inhibitor concentrations were measured in a range of 3 nM to 100 µM. The residual activity (%) and the IC50 values were finally calculated. From the IC50 values the affinity constants Ki were determined using the equation: IC50 =1/2 [Etotal]+Ki × (1 + [S]/Km) following a competitive inhibitor binding mode[19] (Table 1). The used Km values for ATP have been measured with 1.3 µM for EGFR and with 0.989 µM for PDGFR-β.

[1] = tested on: NCI-H23 non-small cell lung cancer cell line; parameters: method as in PMID 19179890, PMID 16926630; conditions: NCI-H23, reported for comparison; cited from earlier work
[2] = tested on: PC-3 prostate cancer cell line; parameters: method as in PMID 19179890, PMID 16926630; conditions: PC-3, reported for comparison; cited from earlier work
[3] = tested on: DU-145 prostate cancer cell line; parameters: method as in PMID 19179890, PMID 16926630; conditions: DU-145, reported for comparison; cited from earlier work
[4] = tested on: DU-145 prostate cancer cell line; assay: Cellular growth inhibition assay (NCI, SRB staining); type: cell-based; conditions: Homo sapiens; DU-145, 10 µM, 48 h; read-out: Compound growth inhibition
Method: (§2) Cells were inoculated into 96 well microtiter plates in […] at plate densities ranging from 5000 to 40.000 cells per well depending from the individual cell doubling time. Then the cell- containing plates were incubated at 37 °C under an air atmosphere containing 5% of carbon dioxide and with a relative humidity for 24 h. After that time two plates of each cell line were fixed in situ with TCA as control before drug addition. Then the drug containing dmso stock solutions were used and mixed with the cell culture medium containing […] of gentamicin. Aliquots of […] of the respective dilution were added to the preincubated plates reaching a final drug concentration of 10 µM. The plates were incubated again under the preincubation conditions as described for 48 h. Then cells were fixed under addition of 50 ml of a cold 50% solution of TCA reaching a final concentration of 10% TCA. Incubation continued for 60 min at 4 °C. The supernatant was discarded and the plates were washed with water for five times and dried at air. Then a sulforhodamine (SRB) solution (0.4%) in acetic acid (1%) was added to each well and plates were incubated again for 10 min. The unbound dye was removed by washing for five times with an acetic acid solution (1%) and the plates were dried at air. The bound stain was solubilised with a […] solution of trizma base and the absorbance was measured with a plate reader at a wavelength of 515 nm. The growth inhibition measured as lowered net protein increase after SRB staining was determined in relation to the untreated control cells (Table 2).
(§3) In first screening studies carried out with an initial concentration of 10 µM by the National Cancer Institute of Health (NCI) the growth inhibition of respective non-small cell lung cancer (NSCLC) cell lines and of prostate cancer cell lines was determined.

[5] = tested on: EKV X non-small cell lung cancer cell line; assay: as above; type: cell-based; conditions: Homo sapiens, EKVX, 48 h, read-out: Compound growth inhibition
Method: as §2, §3

[6] = tested on: NCI-H23 non-small cell lung cancer cell line; assay: as above; type: cell-based; conditions: Homo sapiens; NCI-H23, 10 µM, 48 h; read-out: Compound growth inhibition
Method: as §2, §3

[7] = tested on: NCI-H322M non-small cell lung cancer cell line; assay: as above; type: cell-based; conditions: Homo sapiens, 48 h, read-out: Compound growth inhibition
Method: as §2, §3

[8] = tested on: PC-3 prostate cancer cell line; assay: as above; type: cell-based; conditions: Homo sapiens; PC-3, 10 µM, 48 h; read-out: Compound growth inhibition
Method: as §2, §3

NSCLC cell lines = assay: Cellular growth inhibition assay (NCI, SRB staining), span over the cell lines; type: cell-based; conditions: Homo sapiens, span over EKV X, NCI-H23, NCI-H322M, read-out: growth inhibition rates in the NSCLC cell lines
Method: as §2, §3

[9] = tested on: prostate cancer cell lines; assay: as above; type: cell-based; conditions: Homo sapiens; span over PC-3 and DU-145, 10 µM; read-out: growth inhibition rates in the prostate cancer cell lines
Method: as §2, §3

With `CCOc1ccc(Nc2nc(N)nc3[nH]c4ccc(O)cc4c23)cc1` [Compound 5d, 2-Amino-4-((4-ethoxyphenyl)amino)-9H-pyrimido[4,5-b]indol-6-ol] the Ki (EGFR) was 0.935 ± 0.084 µM and the Ki (PDGFR-β) was 1.91 ± 0.15 µM.
With `C#Cc1cccc(Nc2nc(N)nc3[nH]c4ccc(O)cc4c23)c1` [Compound 5c, 2-Amino-4-((3-ethinylphenyl)amino)-9H-pyrimido[4,5-b]indol-6-ol] the Ki (EGFR) was 0.149 ± 0.066 µM and the Ki (PDGFR-β) was 3.53 ± 0.2 µM.
In the case of `C#Cc1cccc(Nc2ncnc3cc(OCCOC)c(OCCOC)cc23)c1` [erlotinib], the growth inhibition rate [1] is listed as 20%, the growth inhibition rate [2] is listed as 40% and the growth inhibition rate [3] is listed as 45%.
For `Oc1ccc2[nH]c3ncnc(Nc4ccc(OCc5cccc(F)c5)cc4)c3c2c1` [Compound 5m], the Ki (EGFR) was 0.189 ± 0.027 µM, the Ki (PDGFR-β) was 3.66 ± 0.21 µM and the “decrease in the PDGFR-β affinity by a factor” value (PDGFR-β; compared to the 2-amino compound 5k) was “fifty”.
For `COc1ccc(COc2ccc(Nc3nc(N)nc4[nH]c5ccc(O)cc5c34)cc2Cl)cc1` [Compound 5l, 2-Amino-4-((3-chloro-4-((4-methoxybenzyl)oxy)phenyl)amino)-9H-pyrimido[4,5-b]indol-6-ol], the Ki (EGFR) was 0.103 ± 0.037 µM and the Ki (PDGFR-β) was 0.213 ± 0.035 µM.
For `CC(C)Oc1ccc(Nc2nc(N)nc3[nH]c4ccc(O)cc4c23)cc1` [Compound 5e, 2-Amino-4-((4-isopropoxyphenyl)amino)-9H-pyrimido[4,5-b]indol-6-ol], the Ki (EGFR) was 0.574 ± 0.11 µM and the Ki (PDGFR-β) was 1.94 ± 0.218 µM.
For `Nc1nc(Nc2ccc(Cl)cc2)c2c(n1)[nH]c1ccc(O)cc12` [Compound 5g, 2-Amino-4-((4-chlorophenyl)amino)-9H-pyrimido[4,5-b]indol-6-ol], the Ki (EGFR) was 0.686 ± 0.082 µM and the “Ki values PDGFR-β” value (PDGFR-β) was “not active”.
With `COc1ccc(COc2ccc(Nc3nc(N)nc4[nH]c5ccc(O)cc5c34)cc2)cc1` [Compound 5i] the Ki (EGFR) was 0.413 ± 0.111 µM, the Ki (PDGFR-β) was 0.072 ± 0.015 µM and the inhibition at 10 µM [4] was 15%. For the same compound, the inhibition at 10 µM [5] was 29%, the inhibition at 10 µM [6] was 9% and the inhibition at 10 µM [7] was 1%. For the same compound, the inhibition at 10 µM [8] was 25%, the inhibition at 10 µM (NSCLC cell lines) was 1 to 29% and the inhibition at 10 µM [9] was 15 to 25%.
`COc1cccc(COc2ccc(Nc3nc(N)nc4[nH]c5ccc(O)cc5c34)cc2)c1` [Compound 5j] showed a Ki (EGFR) of 0.132 ± 0.099 µM and a Ki (PDGFR-β) of 0.209 ± 0.015 µM.
For `CCOc1cccc(Nc2nc(N)nc3[nH]c4ccc(O)cc4c23)c1` [Compound 5a, 2-Amino-4-((3-ethoxyphenyl)amino)-9H-pyrimido[4,5-b]indol-6-ol], the Ki (EGFR) was 0.181 ± 0.014 µM, the “Ki values PDGFR-β” value (PDGFR-β) was “not active” and the inhibition at 10 µM [4] was 51%. For the same compound, the inhibition at 10 µM [5] was 71%, the inhibition at 10 µM [6] was 32% and the inhibition at 10 µM [7] was 35%. The inhibition at 10 µM [8] was 25% and the inhibition at 10 µM (NSCLC cell lines) was 32 to 71%.
In the case of `C#Cc1ccc(Nc2nc(N)nc3[nH]c4ccc(O)cc4c23)cc1` [Compound 5f, 2-Amino-4-((4-ethinylphenyl)amino)-9H-pyrimido[4,5-b]indol-6-ol], the Ki (EGFR) is reported as 0.421 ± 0.066 µM and the “Ki values PDGFR-β” value (PDGFR-β) is reported as “not active”.
In the case of `Nc1nc(Nc2ccc(Br)cc2)c2c(n1)[nH]c1ccc(O)cc12` [Compound 5h, 2-Amino-4-((4-bromophenyl)amino)-9H-pyrimido[4,5-b]indol-6-ol], the Ki (EGFR) is reported as 0.475 ± 0.143 µM and the Ki (PDGFR-β) is reported as 3.23 ± 0.195 µM.
For `Nc1nc(Nc2ccc(OCc3cccc(F)c3)cc2)c2c(n1)[nH]c1ccc(O)cc12` [Compound 5k], the Ki (EGFR) was 0.17 ± 0.085 µM, the Ki (PDGFR-β) was 0.081 ± 0.01 µM and the inhibition at 10 µM [4] was 90%. It also gave an inhibition at 10 µM [5] of 90%, an inhibition at 10 µM [6] of 93% and an inhibition at 10 µM [7] of 96%. For the same compound, the inhibition at 10 µM [8] was 95%.
In the case of `CC(C)Oc1cccc(Nc2nc(N)nc3[nH]c4ccc(O)cc4c23)c1` [Compound 5b, 2-Amino-4-((3-isopropoxyphenyl)amino)-9H-pyrimido[4,5-b]indol-6-ol], the “Ki values EGFR” value (EGFR) is reported as “lost” and the Ki (PDGFR-β) is reported as 2.75 ± 0.184 µM.
